Measured values: article PMC7822115 (Viruses, 2020)
Read-outs that look alike come from different tables or passages of the source.

How the values were obtained:
in vitro [1] = details: African green monkey
SARS-CoV-2 [2] = assay: microbe, parasite or virus in culture; type: cell-based
SARS-CoV-2 [3] = assay: microbe, parasite or virus in culture; type: cell-based; details: for EC50: Severe acute respiratory syndrome coronavirus 2, Vero, 48 h, read-out: EC50 (95% CI)
[4] = in vivo; cited from earlier work
in vitro [5] = details: human
Vero cells = details: African green monkey
MERS-CoV = assay: microbe, parasite or virus in culture; type: cell-based; details: Middle East respiratory syndrome-related coronavirus, Vero, 48 h, read-out: EC50 (95% CI)

| SMILES | CC50 (in vitro [1]) | Decrease in mean SARS-CoV-2 titer compared to the control (SARS-CoV-2 [2]) | SARS-CoV-2 titer after treatment (in words) (SARS-CoV-2 [2]) | SARS-CoV-2 titer after treatment (in words) (SARS-CoV-2 [3]) | EC50 (SARS-CoV-2 [3]) | Peak human serum concentration [4] | Concentration at which cellular toxicity was detected (A549/ACE2 cells; human) | CC50 (in vitro [5]) | Concentration at which cellular toxicity was observed (Vero cells) | SARS-CoV-2 replication after treatment (in words) (SARS-CoV-2 [2]) | SARS-CoV-2 replication after treatment (in words) (SARS-CoV-2 [3]) | EC50 (MERS-CoV) | EC50 (SARS-CoV-2 [2]; Severe acute respiratory syndrome coronavirus 2, A549-ACE2, 48 h, read-out: EC50 (95% CI)) | Cellular viability / toxicity compared to the media control (in words) (A549/ACE2 cells) |
| --- | --- | --- | --- | --- | --- | --- | --- | --- | --- | --- | --- | --- | --- | --- |
| COc1c(N2C[C@@H]3CCCN[C@@H]3C2)c(F)cc2c(=O)c(C(=O)O)cn(C3CC3)c12 [Moxifloxacin, moxifloxacin] | > 600 µM | 2.2 log | below the level of detection | below the level of detection | 240 µM | 8.6 µM | ≥ 300 µM | > 600 µM | ≥ 300 µM | – | – | – | – | – |
| O=C(Nc1ccc([N+](=O)[O-])cc1Cl)c1cc(Cl)ccc1O [niclosamide] | – | – | – | – | – | – | – | – | – | below the level of detection | below the level of detection | – | – | – |
| O=C(O)c1cn(C2CC2)c2cc(N3CCNCC3)c(F)cc2c1=O [Ciprofloxacin, ciprofloxacin] | – | – | – | below the level of detection | 247 µM | 7.2 µM | – | – | – | – | – | – | – | – |
| C[C@H]1COc2c(N3CCN(C)CC3)c(F)cc3c(=O)c(C(=O)O)cn1c23 [Levofloxacin, levofloxacin] | > 600 µM | 1.4 log | – | – | 419 µM | – | – | > 600 µM | – | – | – | – | – | – |
| CCn1cc(C(=O)O)c(=O)c2cc(F)c(N3CCNCC3)nc21 [Enoxacin, enoxacin] | > 600 µM | – | – | – | 126 µM | 11.2 µM | – | > 600 µM | ≥ 37.5 µM | – | – | 343 µM | 227 µM | not different from the media control |
